From publication PMC4655838, “Versatility in phospho-dependent molecular recognition of the XRCC1 and XRCC4 DNA-damage scaffolds by aprataxin-family FHA domains” (DNA Repair, 2015)
Where two headings read alike, the source gives them in different places. Square brackets hold non-standard residues; d marks the D form. Peptide text beside a SMILES is read from it. pT = C[C@@H](OP(=O)(O)O)[C@H](N)C(=O)O; pS = N[C@@H](COP(=O)(O)O)C(=O)O

Assays:
Type in all cases: binding
[1] = target: T1, wild-type aprataxin FHA domain (Homo sapiens, UniProt Q7Z2E3); test: ITC of wild-type aprataxin FHA domain with XRCC1 and XRCC4 phosphopeptides; settings: 22 °C, 50 mM HEPES pH 7.5, 150 mM NaCl, 5 mM β-mercaptoethanol, peptide in syringe, XRCC1 peptides 1 mM into 100 μM protein, XRCC4 peptides 300 μM into 30 μM protein, single-site model, representative of triplicate
T1 construct: aprataxin residues 1–105; GST (pGEX-6P-1) (N, cleaved yes); made in house; host or cells: Escherichia coli BL21 (DE3)
T1 sequence (Q7Z2E3 15-119): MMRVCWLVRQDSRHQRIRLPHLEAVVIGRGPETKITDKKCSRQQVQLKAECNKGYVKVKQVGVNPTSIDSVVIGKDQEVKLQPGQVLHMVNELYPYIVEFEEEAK
From the text: (§1) The genes for aprataxin residues 1–105 and APLF residues 1–106 were amplified using primer sets which incorporated 5′ BamHI and 3′ XhoI sites. PCR products and pGEX-6P-1 vector were digested with BamHI and XhoI and religated. All point mutations were generated using a QuickChange Site-Directed Mutagenesis Kit (Stratagene) following the manufacturer's recommended protocol.
(§2) For expression, the pGEX-6P-1/aprataxin-FHA constructs were transformed into Escherichia coli strain BL21 (DE3) and the pGEX-6P-1/APLF-FHA constructs transformed into the strain Rosetta2 (DE3). Cells were grown in LB at 37 °C to an A600 of 0.5, induced with 0.4 mM isopropyl 1-thio-β-D-galactopyranoside and incubated at 18 °C for a further 16 h before harvesting. Cells were lysed by sonication and clarified by centrifugation (20,000 × g × 30 min). The supernatant was applied to a glutathione-4B resin (Amersham) and cleaved from the resin with rhinovirus 3C protease. Proteins were purified further by gel-filtration chromatography on a Superdex 75 matrix in 20 mM Tris pH 7.5, 150 mM NaCl, 5 mM DTT. Selenomethionine-labelled APLF L91 M protein was expressed in Rosetta2 (DE3) cells cultured in SelenoMet base media and nutrients supplemented with seleno-methionine solution (Molecular Dimensions Ltd.) and purified as the wild-type protein.
(§3) Phosphopeptides based on the XRCC1 sequence 515-YAGSTDENTDSEEHQ-529 and the XRCC4 sequence 229-YDESTDEES-237 were synthesised with amidated C-termini to avoid potential end-effects of a free carboxy-terminus by Dr. W. Mawby (University of Bristol), purified by HPLC and characterised by mass spectrometry. FHA-phosphopeptide binding was quantified by isothermal titration calorimetry using a Microcal Omega VP-ITC calorimeter (MicroCal Inc., Northampton, MA). Protein was dialysed against ITC buffer (50 mM HEPES pH 7.5, 150 mM NaCl, 5 mM β-mercaptoethanol) and peptides were dissolved in the dialysis buffer. Experiments were carried out at 22 °C and involved 30 successive 10 μl injections of peptide solution into a sample cell containing protein solution. Titrations with XRCC1 peptides used peptide at 1 mM and protein at 100 μM and titrations with XRCC4 peptides used peptide at 300 μm and protein at 30 μM. Heats of dilution were subtracted and binding isotherms were plotted and analysed with MicroCal origin version 7.0, assuming a single-site binding model.

[2] = target: T2, K38A Mutant of aprataxin FHA domain (Homo sapiens, UniProt Q7Z2E3, K52A); test: ITC of K38A mutant of aprataxin FHA domain with XRCC1 and XRCC4 phosphopeptides; settings: 22 °C, 50 mM HEPES pH 7.5, 150 mM NaCl, 5 mM β-mercaptoethanol, single-site model
T2 construct: aprataxin residues 1–105; GST (pGEX-6P-1) (N, cleaved yes); made in house; host or cells: Escherichia coli BL21 (DE3)
T2 sequence (Q7Z2E3 15-119 K52A): as the sequence (Q7Z2E3 15-119) above, with K38A counted along it
From the text: as §1, §2, §3

[3] = target: T3, aprataxin FHA domain (Homo sapiens, UniProt Q7Z2E3); test: NMR (1H-SOFAST-HMQC) titrations of aprataxin FHA domain with XRCC1 phosphopeptides; settings: NMR titration, 22 °C
T3 construct: aprataxin residues 1–105; GST (pGEX-6P-1) (N, cleaved yes); made in house; host or cells: Escherichia coli BL21 (DE3)
T3 sequence (Q7Z2E3 15-119): as the sequence (Q7Z2E3 15-119) above
Protocol: NMR experiments were carried out at 22 °C on Bruker Avance II+ 600 MHz and Avance III 700 MHz spectrometers, each equipped with a cryogenic triple-resonance probe. Protein and peptides were prepared in NMR buffer (20 mM Na Acetate pH 5.8, 50 mM NaCl, 2 mM DTT). Three-dimensional HNCA, HNCO, HNCACB and CBCA(CO)NH experiments were performed to obtain backbone assignments. NMR titration experiments were carried out by adding the unlabelled XRCC1 peptides to ^15N-labeled aprataxin FHA domain. The initial protein concentration was 92 μM and volumes of 2 mM stock solution of peptide were added until the protein:peptide ratio was 1:4. ^1H-SOFAST-HMQC [36] spectra were measured after each titration step. All spectra were processed using nmrPipe, and analysed using CARA/NEASY [38]. The weighted chemical shift change (in ppm units) of each amide proton (ΔδHN) and nitrogen (ΔδN) was calculated according to the equation: Δδtotal = [(ΔδHNWHN)^2 + (ΔδNWN)^2]^1/2 with WHN = 1 and WN = 0.154 [39]. Weighted chemical shifts for residues D37, V45, Q46, V61 and V63 were plotted against peptide concentration to determine individual Kds and averaged to determine the apparent Kd.

[4] = target: T4, R42A Mutant of aprataxin FHA domain (Homo sapiens, UniProt Q7Z2E3, R56A); test: ITC of R42A mutant of aprataxin FHA domain with XRCC1 and XRCC4 phosphopeptides; settings: 22 °C, 50 mM HEPES pH 7.5, 150 mM NaCl, 5 mM β-mercaptoethanol, single-site model
T4 construct: aprataxin residues 1–105; GST (pGEX-6P-1) (N, cleaved yes); made in house; host or cells: Escherichia coli BL21 (DE3)
T4 sequence (Q7Z2E3 15-119 R56A): as the sequence (Q7Z2E3 15-119) above, with R42A counted along it
From the text: as §1, §2, §3

SMILES	Kd [1]	Kd [2]	Kd ([3]; 20 mM Na Acetate pH 5.8, 50 mM NaCl, 2 mM DTT, 92 µM 15N aprataxin FHA, 2 mM peptide stock, read-out: Kd from weighted chemical shift of residue Asp37)	Kd ([3]; pH 5.8, 92 µM aprataxin FHA, read-out: Kd from weighted chemical shift of residue Gln46)	Kd ([3]; pH 5.8, 92 µM aprataxin FHA, read-out: Kd from weighted chemical shift of residue Val45)	Kd ([3]; pH 5.8, 92 µM aprataxin FHA, read-out: Kd from weighted chemical shift of residue Val61)	Kd ([3]; pH 5.8, 92 µM aprataxin FHA, read-out: Kd from weighted chemical shift of residue Val63)	Kd [4]
C[C@H](NC(=O)[C@@H](N)Cc1ccc(O)cc1)C(=O)NCC(=O)N[C@@H](CO)C(=O)N[C@H](C(=O)N[C@@H](CC(=O)O)C(=O)N[C@@H](CCC(=O)O)C(=O)N[C@@H](CC(N)=O)C(=O)N[C@H](C(=O)N[C@@H](CC(=O)O)C(=O)N[C@@H](COP(=O)(O)O)C(=O)N[C@@H](CCC(=O)O)C(=O)N[C@@H](CCC(=O)O)C(=O)N[C@@H](Cc1c[nH]cn1)C(=O)N[C@@H](CCC(N)=O)C(N)=O)[C@@H](C)OP(=O)(O)O)[C@@H](C)O [YAGSTDENpTDpSEEHQ] (HELM PEPTIDE1{Y.A.G.S.T.D.E.N.[C[C@@H](OP(=O)(O)O)[C@H](N[*:1])C(=O)[*:2]].D.[O=C([C@H](COP(=O)(O)O)N[*:1])[*:2]].E.E.H.Q.[am]}$$$$V2.0)	33000 ± 870 nM	–	–	–	–	–	–	–
C[C@H](NC(=O)[C@@H](N)Cc1ccc(O)cc1)C(=O)NCC(=O)N[C@@H](COP(=O)(O)O)C(=O)N[C@H](C(=O)N[C@@H](CC(=O)O)C(=O)N[C@@H](CCC(=O)O)C(=O)N[C@@H](CC(N)=O)C(=O)N[C@H](C(=O)N[C@@H](CC(=O)O)C(=O)N[C@@H](CO)C(=O)N[C@@H](CCC(=O)O)C(=O)N[C@@H](CCC(=O)O)C(=O)N[C@@H](Cc1c[nH]cn1)C(=O)N[C@@H](CCC(N)=O)C(N)=O)[C@@H](C)O)[C@@H](C)OP(=O)(O)O [YAGpSpTDENTDSEEHQ] (HELM PEPTIDE1{Y.A.G.[O=C([C@H](COP(=O)(O)O)N[*:1])[*:2]].[C[C@@H](OP(=O)(O)O)[C@H](N[*:1])C(=O)[*:2]].D.E.N.T.D.S.E.E.H.Q.[am]}$$$$V2.0)	1500 ± 60 nM	12800 ± 700 nM	2000 nM	1700 nM	2500 nM	1600 nM	2100 nM	53200 ± 5800 nM
C[C@@H](OP(=O)(O)O)[C@H](NC(=O)[C@H](COP(=O)(O)O)NC(=O)[C@H](CCC(=O)O)NC(=O)[C@H](CC(=O)O)NC(=O)[C@@H](N)Cc1ccc(O)cc1)C(=O)N[C@@H](CC(=O)O)C(=O)N[C@@H](CCC(=O)O)C(=O)N[C@@H](CCC(=O)O)C(=O)N[C@@H](COP(=O)(O)O)C(N)=O [YDEpSpTDEEpS] (H-YDE[pS][pT]DEE[pS]-NH2)	140 ± 10 nM	1300 ± 50 nM	–	–	–	–	–	≥ 100000 nM
C[C@@H](OP(=O)(O)O)[C@H](NC(=O)[C@H](COP(=O)(O)O)NC(=O)[C@H](CCC(=O)O)NC(=O)[C@H](CC(=O)O)NC(=O)[C@@H](N)Cc1ccc(O)cc1)C(=O)N[C@@H](CC(=O)O)C(=O)N[C@@H](CCC(=O)O)C(=O)N[C@@H](CCC(=O)O)C(=O)N[C@@H](CO)C(N)=O [YDEpSpTDEES] (HELM PEPTIDE1{Y.D.E.[O=C([C@H](COP(=O)(O)O)N[*:1])[*:2]].[C[C@@H](OP(=O)(O)O)[C@H](N[*:1])C(=O)[*:2]].D.E.E.S.[am]}$$$$V2.0)	250 ± 20 nM	1900 ± 60 nM	–	–	–	–	–	≥ 100000 nM
